Data from ChEMBL document CHEMBL2057073, “Synthesis and structure-activity relationship studies of 1,3-disubstituted 2-propanols as BACE-1 inhibitors” (Bioorg Med Chem Lett, 2012).

Assays:
[1] = biological target: T1, Beta-secretase 1 (Homo sapiens, UniProt P56817); assay: Inhibition of BACE1 at 25 uM by FRET assay
[2] = biological target: T1, Beta-secretase 1; assay: Inhibition of BACE1 at 50 uM by FRET assay
[3] = biological target: T1, Beta-secretase 1; assay: Inhibition of BACE1 at 100 uM by FRET assay

T1 sequence (P56817 whole entry): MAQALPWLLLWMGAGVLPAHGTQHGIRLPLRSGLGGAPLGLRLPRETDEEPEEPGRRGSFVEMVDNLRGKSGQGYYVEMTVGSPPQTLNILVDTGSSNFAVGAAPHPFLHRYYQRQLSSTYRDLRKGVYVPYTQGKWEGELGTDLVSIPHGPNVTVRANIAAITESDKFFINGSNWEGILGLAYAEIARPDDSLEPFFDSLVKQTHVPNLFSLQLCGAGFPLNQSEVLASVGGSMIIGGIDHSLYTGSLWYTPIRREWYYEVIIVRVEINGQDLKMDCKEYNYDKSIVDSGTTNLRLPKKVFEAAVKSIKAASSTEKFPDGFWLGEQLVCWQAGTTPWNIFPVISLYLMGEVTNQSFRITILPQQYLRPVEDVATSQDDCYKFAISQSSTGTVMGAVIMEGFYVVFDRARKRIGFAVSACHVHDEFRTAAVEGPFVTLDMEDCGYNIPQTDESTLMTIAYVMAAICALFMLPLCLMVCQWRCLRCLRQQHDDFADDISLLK

SMILES	inhibition [1]	inhibition [2]	inhibition [3]
COc1ccc(SCC(O)Cn2ccc3ccccc32)c(OC)c1 (stereo unspecified)	43%	76%	84%
COc1cc2c(cc1OC)C(c1ccccc1)N(CC(O)CSc1nnnn1-c1ccccc1)CC2 (stereo unspecified)	–	–	45%
OC(CSCCCc1ccccc1)Cn1c2c(c3ccccc31)CCC2 (stereo unspecified)	53%	81%	96%
COc1ccc(SCC(O)Cn2c(C)c(C)c3ccccc32)cc1 (stereo unspecified)	26%	70%	96%
Oc1ccc(SCC(O)COc2ccc(-c3ccccc3)cc2)cc1 (stereo unspecified)	–	–	17%
OC(COc1ccc(Cc2ccccc2)cc1)CSc1nnnn1-c1ccccc1 (stereo unspecified)	–	–	62%
CCc1ccc(SCC(O)COc2ccc(Cc3ccccc3)cc2)cc1 (stereo unspecified)	–	–	69%
Cc1ccc(SCC(O)Cn2c3c(c4ccccc42)CCC3)cc1 (stereo unspecified)	55%	81%	91%
CCc1cccc2ccn(CC(O)CSc3ccc(OC)cc3)c12 (stereo unspecified)	11%	54%	83%
Cc1ccc(SCC(O)CN(Cc2ccccc2)Cc2ccccc2)cc1 (stereo unspecified)	–	–	7%
CCc1ccc(SCC(O)Cn2ccc3cccc(CC)c32)cc1 (stereo unspecified)	38%	61%	92%
CCc1cccc2ccn(CC(O)CSCCCc3ccccc3)c12 (stereo unspecified)	–	–	0%
OC(CSc1nnnn1-c1ccccc1)CN1CCCCCC1 (stereo unspecified)	–	–	0%
COc1cc2c(cc1OC)C(c1ccccc1)N(CC(O)CSc1ccc(Cl)cc1)CC2 (stereo unspecified)	–	–	3%
Cc1cc(C)cc(SCC(O)CN(Cc2ccccc2)Cc2ccccc2)c1 (stereo unspecified)	–	–	38%
CCc1cccc2ccn(CC(O)CSc3nnnn3-c3ccccc3)c12 (stereo unspecified)	–	46%	86%
OC(CSc1ccc(F)cc1)CN1CCCCCC1 (stereo unspecified)	–	–	10%
OC(CSc1ccccc1)CN1CCCCCC1 (stereo unspecified)	–	–	2%
Cc1c(C)n(CC(O)CSc2cccc(N)c2)c2ccccc12 (stereo unspecified)	–	–	55%
COc1ccc(SCC(O)CN(Cc2ccccc2)Cc2ccccc2)cc1 (stereo unspecified)	–	–	10%

SMILES	inhibition [1]	inhibition [2]	inhibition [3]
CCc1ccc(SCC(O)Cn2ccc3ccccc32)cc1 (stereo unspecified)	–	–	72%
COc1ccc(SCC(O)COc2ccc(-c3ccccc3)cc2)cc1 (stereo unspecified)	–	–	45%
COc1ccc(SCC(O)CN2CCc3cc(OC)c(OC)cc3C2c2ccccc2)cc1 (stereo unspecified)	–	–	20%
COc1ccc(SCC(O)COc2ccc(-c3ccccc3)cc2)c(OC)c1 (stereo unspecified)	–	–	74%
OC(CSc1ccc(Cl)cc1)CN1CCCCCC1 (stereo unspecified)	–	–	0%
CCc1cccc2ccn(CC(O)CSc3ccc(OC)cc3OC)c12 (stereo unspecified)	–	–	69%
COc1cc2c(cc1OC)C(c1ccccc1)N(CC(O)CSc1ccc(C)cc1)CC2 (stereo unspecified)	–	–	11%
COc1cc2c(cc1OC)C(c1ccccc1)N(CC(O)CSc1cc(C)cc(C)c1)CC2 (stereo unspecified)	–	–	15%
OC(CSc1nnnn1-c1ccccc1)Cn1c2c(c3ccccc31)CCC2 (stereo unspecified)	37%	76%	87%
COc1ccc(SCC(O)Cn2c3c(c4ccccc42)CCCC3)c(OC)c1 (stereo unspecified)	–	–	74%
Cc1cc(C)cc(SCC(O)COc2ccc(Cc3ccccc3)cc2)c1 (stereo unspecified)	–	–	71%
OC(CSc1ccccc1)Cn1c2c(c3ccccc31)CCC2 (stereo unspecified)	35%	64%	85%
CCc1cccc2ccn(CC(O)CSc3ccccc3O)c12 (stereo unspecified)	–	–	32%
COc1ccc(SCC(O)Cn2c3c(c4ccccc42)CCC3)cc1 (stereo unspecified)	27%	74%	85%
COc1ccc(SCC(O)CN2CCc3cc(OC)c(OC)cc3C2c2ccccc2)c(OC)c1 (stereo unspecified)	–	–	24%
OC(COc1ccc(Cc2ccccc2)cc1)CSc1ccc(Cl)cc1 (stereo unspecified)	–	–	63%
CCc1ccc(SCC(O)CN2CCc3cc(OC)c(OC)cc3C2c2ccccc2)cc1 (stereo unspecified)	–	–	21%
OC(CSc1nnnn1-c1ccccc1)Cn1ccc2ccccc21 (stereo unspecified)	–	–	58%
Cc1cc(C)cc(SCC(O)CN2CCCCCC2)c1 (stereo unspecified)	–	–	15%
COc1cc2c(cc1OC)C(c1ccccc1)N(CC(O)CSc1ccc(F)cc1)CC2 (stereo unspecified)	–	–	15%

SMILES	inhibition [1]	inhibition [2]	inhibition [3]
COc1ccc(SCC(O)Cn2c(C)c(C)c3ccccc32)c(OC)c1 (stereo unspecified)	0%	37%	83%
Cc1c(C)n(CC(O)CSc2nnnn2-c2ccccc2)c2ccccc12 (stereo unspecified)	31%	64%	93%
COc1ccc(SCC(O)CN(Cc2ccccc2)Cc2ccccc2)c(OC)c1 (stereo unspecified)	–	–	34%
COc1ccc(SCC(O)Cn2c3ccccc3c3ccccc32)cc1 (stereo unspecified)	37%	72%	88%
COc1ccc(SCC(O)Cn2c3c(c4ccccc42)CCC3)c(OC)c1 (stereo unspecified)	–	–	75%
Cc1c(C)n(CC(O)CSc2ccccc2)c2ccccc12 (stereo unspecified)	–	–	69%
CCc1cccc2ccn(CC(O)CSc3cc(C)cc(C)c3)c12 (stereo unspecified)	40%	71%	90%
Cc1c(C)n(CC(O)CSc2ccc3ccccc3c2)c2ccccc12 (stereo unspecified)	–	–	87%
COc1ccc(SCC(O)Cn2c(-c3ccccc3)cc3ccccc32)c(OC)c1 (stereo unspecified)	21%	42%	77%
COc1ccc(SCC(O)Cn2c3ccccc3c3ccccc32)c(OC)c1 (stereo unspecified)	22%	69%	80%
OC(CSc1ccc(F)cc1)Cn1ccc2ccccc21 (stereo unspecified)	–	–	54%
OC(CSc1ccc2ccccc2c1)CN1CCCCCC1 (stereo unspecified)	–	–	0%
Cc1ccc(SCC(O)COc2ccc(-c3ccccc3)cc2)cc1 (stereo unspecified)	–	–	27%
Cc1c(C)n(CC(O)CSc2ccc(O)cc2)c2ccccc12 (stereo unspecified)	–	–	75%
COc1ccc(SCC(O)COc2ccc(Cc3ccccc3)cc2)cc1 (stereo unspecified)	–	–	48%
CCc1ccccc1SCC(O)CN1CCc2cc(OC)c(OC)cc2C1c1ccccc1 (stereo unspecified)	–	–	1%
COc1ccc(SCC(O)COc2ccc(Cc3ccccc3)cc2)c(OC)c1 (stereo unspecified)	–	–	67%
Cc1c(C)n(CC(O)CSc2ccccc2O)c2ccccc12 (stereo unspecified)	–	–	61%
OC(CSCCCc1ccccc1)CN(Cc1ccccc1)Cc1ccccc1 (stereo unspecified)	–	–	16%
OC(COc1ccc(Cc2ccccc2)cc1)CSc1ccc(F)cc1 (stereo unspecified)	–	–	62%

Now from value to compound:

inhibition [1]	inhibition [2]	inhibition [3]	SMILES
–	–	10%	OC(CSc1ccc(Cl)cc1)CN1CCC(C(O)(c2ccccc2)c2ccccc2)CC1 (stereo unspecified)
–	–	1%	OC(CSc1nnnn1-c1ccccc1)CN1CCC(C(O)(c2ccccc2)c2ccccc2)CC1 (stereo unspecified)
–	–	1%	OC(CSc1ccccc1F)CN(Cc1ccccc1)Cc1ccccc1 (stereo unspecified)
–	–	45%	OC(CSc1ccccc1Cl)CN(Cc1ccccc1)Cc1ccccc1 (stereo unspecified)
–	–	2%	OC(CSc1ccccc1)CN1CCC(C(O)(c2ccccc2)c2ccccc2)CC1 (stereo unspecified)
–	–	5%	Cc1ccccc1SCC(O)CN1CCC(C(O)(c2ccccc2)c2ccccc2)CC1 (stereo unspecified)
–	–	54%	CCc1ccccc1SCC(O)CN(Cc1ccccc1)Cc1ccccc1 (stereo unspecified)
–	–	71%	CCc1ccccc1SCC(O)COc1ccc(Cc2ccccc2)cc1 (stereo unspecified)
–	–	0%	OC(CSc1nnnn1-c1ccccc1)CN(Cc1ccccc1)Cc1ccccc1 (stereo unspecified)
51%	82%	94%	OC(CSc1ccccc1F)Cn1c2c(c3ccccc31)CCC2 (stereo unspecified)
–	–	0%	Oc1ccc(SCC(O)CN2CCC(C(O)(c3ccccc3)c3ccccc3)CC2)cc1 (stereo unspecified)
–	–	56%	Cc1c(C)n(CC(O)CSc2ccccc2F)c2ccccc12 (stereo unspecified)
–	–	64%	OC(CSc1nnnn1-c1ccccc1)Cn1c2ccccc2c2ccccc21 (stereo unspecified)
90%	101%	84%	Oc1ccccc1SCC(O)COc1ccc(Cc2ccccc2)cc1 (stereo unspecified)
–	–	0%	Cc1cc(C)cc(SCC(O)CN2CCC(C(O)(c3ccccc3)c3ccccc3)CC2)c1 (stereo unspecified)
–	–	24%	Oc1ccccc1SCC(O)Cn1ccc2ccccc21 (stereo unspecified)
–	–	0%	COc1ccc(SCC(O)CN2CCC(C(O)(c3ccccc3)c3ccccc3)CC2)cc1 (stereo unspecified)
–	–	67%	Cc1ccccc1SCC(O)Cn1c(-c2ccccc2)cc2ccccc21 (stereo unspecified)
–	–	53%	OC(CSc1nnnn1-c1ccccc1)Cn1c(-c2ccccc2)cc2ccccc21 (stereo unspecified)
56%	69%	82%	OC(CSc1ccc(Cl)cc1)Cn1c(-c2ccccc2)cc2ccccc21 (stereo unspecified)
–	–	2%	OC(CSc1ccc(F)cc1)CN(Cc1ccccc1)Cc1ccccc1 (stereo unspecified)

inhibition [1]	inhibition [2]	inhibition [3]	SMILES
–	–	0%	OC(CSc1ccc2ccccc2c1)CN1CCC(C(O)(c2ccccc2)c2ccccc2)CC1 (stereo unspecified)
–	–	0%	COc1ccc(SCC(O)CN2CCC(C(O)(c3ccccc3)c3ccccc3)CC2)c(OC)c1 (stereo unspecified)
–	–	73%	Nc1cccc(SCC(O)Cn2c(-c3ccccc3)cc3ccccc32)c1 (stereo unspecified)
42%	78%	79%	CCc1ccc(SCC(O)Cn2c(-c3ccccc3)cc3ccccc32)cc1 (stereo unspecified)
–	–	3%	Oc1ccccc1SCC(O)CN1CCC(C(O)(c2ccccc2)c2ccccc2)CC1 (stereo unspecified)
–	–	23%	COc1cc2c(cc1OC)C(c1ccccc1)N(CC(O)CSc1ccccc1F)CC2 (stereo unspecified)
–	–	24%	COc1cc2c(cc1OC)C(c1ccccc1)N(CC(O)CSc1ccccc1C)CC2 (stereo unspecified)
–	–	3%	CCc1ccccc1SCC(O)CN1CCC(C(O)(c2ccccc2)c2ccccc2)CC1 (stereo unspecified)
–	–	71%	OC(COc1ccc(-c2ccccc2)cc1)CSc1nnnn1-c1ccccc1 (stereo unspecified)
–	–	19%	OC(CSc1ccc2ccccc2c1)CN(Cc1ccccc1)Cc1ccccc1 (stereo unspecified)
–	–	74%	Cc1ccccc1SCC(O)COc1ccc(-c2ccccc2)cc1 (stereo unspecified)
–	–	1%	Cc1ccc(SCC(O)CN2CCC(C(O)(c3ccccc3)c3ccccc3)CC2)cc1 (stereo unspecified)
–	–	2%	Oc1ccccc1SCC(O)CN(Cc1ccccc1)Cc1ccccc1 (stereo unspecified)
–	–	0%	OC(CSc1ccccc1)CN(Cc1ccccc1)Cc1ccccc1 (stereo unspecified)
–	–	70%	COc1ccc(SCC(O)Cn2c(-c3ccccc3)cc3ccccc32)cc1 (stereo unspecified)
–	–	8%	OC(CSc1ccccc1F)CN1CCC(C(O)(c2ccccc2)c2ccccc2)CC1 (stereo unspecified)
–	–	64%	OC(COc1ccc(Cc2ccccc2)cc1)CSc1ccccc1F (stereo unspecified)
–	–	24%	OC(CSc1ccc(Cl)cc1)CN(Cc1ccccc1)Cc1ccccc1 (stereo unspecified)
–	–	33%	Oc1ccccc1SCC(O)COc1ccc(-c2ccccc2)cc1 (stereo unspecified)
–	–	1%	CCc1ccc(SCC(O)CN2CCC(C(O)(c3ccccc3)c3ccccc3)CC2)cc1 (stereo unspecified)
–	–	5%	OC(CSc1ccccc1Cl)CN1CCC(C(O)(c2ccccc2)c2ccccc2)CC1 (stereo unspecified)
